Results from patent US7662775B2 (Astellas Pharma Inc., priority 2000, dated 2010).

Tests used:
[1] = test system: GK (Goto-Kakizaki) rats; assay: Glucose tolerance test for GK rats, type II diabetes model (Example 9); type: in vivo, rat; conditions: 100 mg/kg orally administered, 2 g/kg oral glucose, 30 and 60 minutes after glucose
Description: (§1) SD rats (4 weeks old; CLEA JAPAN) were forced to fast overnight, and 2 g/kg of glucose was orally administered. 100 mg/kg of 2-(pyridine-4-yl)ethyl thiobenzoate (LT-1 Z 0059519) had been intraperitoneally administered 5 minutes before the glucose administration. An appropriate amount of blood was taken 0 minute, 30 minutes, 60 minutes, and 120 minutes after the glucose administration, and used for the measurement of a blood glucose level and a concentration of plasma insulin.
(§2) For measuring the blood glucose level, a supernatant obtained by mixing blood and 0.33 mol/L perchloric acid (blood:0.33 mol/L perchloric acid=1:10) and centrifuging the mixture (3000×g, 10 minutes, 4° C.) was used. For measuring the concentration of plasma insulin, a supernatant obtained by centrifuging blood (3000×g, 10 minutes, 4° C.) was used. Further, Glucose C test Wako (Wako) was used in the measurement of the blood glucose level, and a rat insulin assay system (Amersham) was used in the measurement of the concentration of plasma insulin.
Then, a glucose tolerance test for GK (Goto-Kakizaki) rats (type II diabetes models with incomplete insulin secretion; 7 weeks old; Charles River Japan) by one oral dose was carried out. […]

[2] = test system: SD rats; assay: Glucose tolerance test for SD rats (Example 9); type: in vivo, rat; conditions: 100 mg/kg intraperitoneally 5 minutes before 2 g/kg oral glucose, 30 minutes after glucose, p<0.05 vs control
Description: as §1, §2
FIG. 1 illustrates a time course of the concentration of plasma insulin (unit=ng/mL) after the oral administration of glucose, and FIG. 2 illustrates a time course of the blood glucose level (unit=mg/dL) after the oral administration of glucose. […]

[3] = test system: mouse pancreatic β cell line MIN6; assay: Insulin secretion from mouse pancreatic β cell line MIN6, Part 1 (Example 8); type: cell-based; conditions: MIN6 cells, 20 minutes
Description: MIN6 cells (2×10^5 cells) were seeded on a 24-well plate, and cultured for 2 days in a DMEM containing 10% FCS. The medium was aspirated, and the cells were washed with KRB-HEPES (140 mmol/L NaCl, 3.6 mmol/L KC1, 0.5 mmol/L NaH2PO4, 0.5 mmol/L MgSO4, 1.5 mmol/L CaCl2, 10 mmol/L Hepes, 2 mmol/L NaHCO3, 0.1% BSA, pH7.4). After 2.8 mmol/L glucose-containing KRB-HEPES (1 ml) was added, the whole was incubated at 37° C. for 30-60 minutes in the presence of 5% CO2.
After the buffer was aspirated, one of the four compounds obtained by the screening in Example 7, i.e., 2-(pyridine-4-yl)ethyl thiobenzoate, in the form of a solution (0.5 ml) prepared by diluting the compound with 2.8 mmol/L or 16.8 mmol/L glucose-containing KRB-HEPES, was added, and the whole was incubated at 37° C. for 20 minutes in the presence of 5% CO2. A supernatant was used for measuring an amount of insulin secreted.
(§3) A commercially available insulin radioimmunoassay kit (Phadeseph insulin; Pharmacia Upjohn) was used for the measurement of the amount of insulin secreted.

[4] = biological target: T1, polypeptide consisting of the amino acid sequence of SEQ ID NO: 2 (Homo sapiens, UniProt Q8TDV5); assay: CRE-luciferase reporter screening in transfected 293-EBNA cells (Example 7); type: cell-based; conditions: 293-EBNA cells transfected with pEF-BOS-NA and pCRE-Luc; 5-6 hours incubation; read-out: EC50 value (increase of reporter activity)
T1 construct: expressed in transfected cells; host or cells: 293-EBNA cells, transient transfection with plasmid pEF-BOS-NA
T1 sequence (Q8TDV5 1-335): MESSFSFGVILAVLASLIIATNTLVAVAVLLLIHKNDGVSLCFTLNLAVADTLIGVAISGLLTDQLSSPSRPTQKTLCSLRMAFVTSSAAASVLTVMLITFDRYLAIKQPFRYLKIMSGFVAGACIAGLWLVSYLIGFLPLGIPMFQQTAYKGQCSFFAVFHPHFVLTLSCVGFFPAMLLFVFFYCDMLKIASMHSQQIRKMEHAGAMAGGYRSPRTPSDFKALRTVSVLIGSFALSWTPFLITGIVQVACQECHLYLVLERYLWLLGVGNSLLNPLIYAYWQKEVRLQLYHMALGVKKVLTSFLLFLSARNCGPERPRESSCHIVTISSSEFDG
Description: (§4) The pEF-BOS-NA plasmid used in Example 6 was also used in the present Example.
293-EBNA cells, (1×10^4 cells/well) were seeded on a 96-well plate coated with collagen, and cultured overnight in a Dulbecco modified Eagles' medium (DMEM) containing 10% fetal calf serum (FCS). Then, a transfection reagent (LIPOFECTAMINE 2000; GIBCO BRL) was used to transfect 0.01 ng of a plasmid pEF-BOS-NA or a plasmid pEF-BOS (negative control vector) and 5 ng of a pCRE-Luc vector (CLONTECH) to the cells. […] After the medium was aspirated, the cells were lysed with a cell lysing solution (cell lysis buffer LCβ; Toyo Ink Mfg.). A luciferase activity of the lysate was measured by a commercially available measuring kit (PicaGene Luminescent kit; Toyo Ink Mfg.) and a measuring apparatus (ML3000 microtiter plate luminometer; Dynatech Laboratories).

[5] = biological target: T1, polypeptide consisting of the amino acid sequence of SEQ ID NO: 2; assay: Intracellular cAMP amount in transfected 293-EBNA cells, enzymeimmunoassay (Example 11); type: cell-based; conditions: 293-EBNA cells transfected with pEF-BOS-NA; 1 mmol/L IBMX; 30 minutes
Description: as §4
293-EBNA Cells (1×10^4 cells/well) were seeded on a 96-well plate coated with collagen, and cultured for 24 hours. Then, a transfection reagent (LIPOFECTAMINE 2000; GIBCO BRL) was used to transfect 3 ng of a plasmid pEF-BOS-NA or a plasmid pEF-BOS (negative control vector) to the cells. The transfected cells were further cultured for 20 hours, and the medium was aspirated. After 80 μL of 1 mmol/L IBMX (3-isobutyl-1-methylxanthine)/0.1% BSA/DMEM was added, the whole was incubated at 37° C. for 10 minutes in the presence of 5% CO2. Then, a test compound diluted with 20 μL of 1 mmol/L IBMX/0.1% BSA/DMEM was added, and the whole was incubated for 30 minutes. After the medium was aspirated, the resulting cells were used for the measurement of an amount of cAMP. A commercially available cAMP enzymeimmunoassay system (cyclic AMP kit; Nihon Schering) was used to measure the amount of cAMP.

[6] = test system: mouse pancreatic β cell line MIN6; assay: Insulin secretion from mouse pancreatic β cell line MIN6, Part 2 (Example 12); type: cell-based; conditions: MIN6 cells, 16.8 mmol/L glucose, 30 minutes
Description: MIN6 cells (2.5×10^5 cells) were seeded on a 24-well plate coated with collagen, and cultured for 2 days in a DMEM containing 10% FCS (Cat. No. 11995-065; GIBCO BRL). The medium was aspirated, and 0.4 mL of a glucose-free DMEM containing 10% FCS (Cat. No. 11966-025; GIBCO BRL) was added. The whole was incubated at 37° C. for 2 hours in the presence of 5% CO2.
After the medium was aspirated, 0.5 mL of a solution of L-α-lysophosphatidylcholine oleoyl, the compound selected by the screening method in Example 10, diluted with 2.8 mmol/L or 16.8 mmol/L glucose-containing DMEM (Cat. No. 11966-025; GIBCO BRL) was added, and the whole was incubated at 37° C. for 30 minutes in the presence of 5% CO2. A supernatant was used for measuring an amount of insulin secreted.
as §3

[7] = biological target: T1, polypeptide consisting of the amino acid sequence of SEQ ID NO: 2; assay: CRE-luciferase reporter screening in transfected 293-EBNA cells (Example 10); type: cell-based; conditions: 293-EBNA cells transfected with pEF-BOS-NA and pCRE-Luc; 6 hours; specific versus pEF-BOS control vector
Description: as §4
293-EBNA cells (7×10^4 cells/well) were seeded on a 24-well plate coated with collagen, and cultured overnight in a Dulbecco modified Eagles' medium (DMEM) containing 1% fetal calf serum (FCS). Then, a transfection reagent (LIPOFECTAMINE 2000; GIBCO BRL) was used to transfect 0.1 ng of a plasmid pEF-BOS-NA or a plasmid pEF-BOS (negative control vector) and 20 ng of a pCRE-Luc vector (CLONTECH) to the cells. The transfected cells were further cultured for 18-20 hours, and then a test compound diluted with a medium containing 0.1% BSA was added, and the whole was incubated at 37° C. for 6 hours in the presence of 5% CO2. After the medium was aspirated, the cells were lysed with a cell lysing solution (cell lysis buffer LCβ; Toyo Ink Mfg.). A luciferase activity of the lysate was measured by a commercially available measuring kit (PicaGene Luminescence kit; Toyo Ink Mfg.) and a measuring apparatus (ML3000 microtiter plate luminometer; Dynatech Laboratories).
L-α-lysophosphatidylcholine oleoyl (L1881; SIGMA), a biocomponent, could be obtained.

Compound | increase of the blood glucose level by the glucose administration [1] | concentration of plasma insulin [2] | increase of the blood glucose level by the glucose administration [2] | amount of insulin secreted ([3]; 2.8 mmol/L glucose) | amount of insulin secreted ([3]; 16.8 mmol/L glucose) | EC50 [4] | amount of cAMP [5] | amount of insulin secreted [6] | reporter activity (luciferase) [7]
O=C(SCCc1ccncc1)c1ccccc1 | significantly suppressed | significant increase | significantly suppressed | did not cause an increase | caused an increase | 3.2 µM | – | – | –
CCCCCCCC/C=C\CCCCCCCC(=O)OC[C@@H](O)COP(=O)([O-])OCC[N+](C)(C)C [L-α-lysophosphatidylcholine oleoyl] | – | – | – | – | – | – | exhibited an increase of the amount of cAMP specifically in the cells | caused an increase | increase of a reporter activity specifically in cells
